How the values were obtained:
Leptosphaeria nodorum = test: Microtiterplate test against wheat leaf spots caused by Leptosphaeria nodorum; format: cell-based; conditions: comparative example, 405 nm 9 days after inoculation
Botrytis cinerea = test: Microtiterplate test against grey mold Botrytis cinerea; format: cell-based; conditions: comparative example, 405 nm 9 days after inoculation

Row | Compound | Growth (%) at 31 ppm (Leptosphaeria nodorum) | Growth (%) at 31 ppm (Botrytis cinerea)
1 | CCOC(C)c1c(F)cccc1Oc1cnc(C)c(C)c1 (stereo not shown) [Example I-16] | 40% | 34%
2 | COC(C)c1c(F)cccc1Oc1cnc(C)c(C)c1 (stereo not shown) [State of the art] | 68% | 58%

— US10696634B2, “Pyridine compounds as fungicides” (BASF SE, priority 2015, dated 2020)
